Experimental data as given in patent publication US20200009281A1, “ODOR CONTROL AGENT” (priority 2017, published 2020).

Biological target: T1, Urease Enzyme from Canavalia ensiformis (Jack bean) (Canavalia ensiformis, UniProt P07374)
T1 construct: purchased
Assay: Headspace ammonia measurement over treated cat litter inoculated with synthetic urine and urease
Type: biochemical
Conditions: headspace ammonia after 1 day; 100 g NATIONAL 12 Bentonite cat litter plus active, 10 mL inoculant (urea solution + urease); Sensidyne detector tubes
Method: In a bottle add the following components: Urea (ACS Reagent Grade): 18.8 g, and 250 g of deionized water. The bottle is capped and mixed to dissolve urea. The pH of the solution is measured to confirm the pH is between 6.5 and 7.
Immediately before use, mix 6.25 mL of Urease Enzyme from Canavalia ensiformis (Jack bean) in Glycerol (Type III, 500-800 units/mL) with the full volume of Synthetic Urine prepared above.
Charge a plastic bag with 100 g of untreated NATIONAL™ 12 Bentonite (particle size approximately 1.6 mm) cat litter. Add the active component or mixture, as prepared in the Active Mixture Preparation section, to the bag containing the untreated litter. Seal the bag to prevent loss of material and mix by shaking for 30 seconds. Pour the mixture into a hexagonal plastic weighboat contained within a 1 gallon sealable plastic container having a lid with a hole covered with tape. […]
Low (0.2-20 ppm) or high (5-260 ppm) range […] ® Ammonia Gas Detector Tubes are used to quantify the headspace ammonia concentration. The following procedure is used for ammonia detection and quantification in each test sample. […] Read the scale at the maximum point of the stained layer (yellow in color). Read and report the concentration immediately after measurement. If the reading is off scale, for example 20 ppm for the low range tubes, repeat the measurement using the high range gas detector tube. […]

T1 sequence (P07374 whole entry, looked up): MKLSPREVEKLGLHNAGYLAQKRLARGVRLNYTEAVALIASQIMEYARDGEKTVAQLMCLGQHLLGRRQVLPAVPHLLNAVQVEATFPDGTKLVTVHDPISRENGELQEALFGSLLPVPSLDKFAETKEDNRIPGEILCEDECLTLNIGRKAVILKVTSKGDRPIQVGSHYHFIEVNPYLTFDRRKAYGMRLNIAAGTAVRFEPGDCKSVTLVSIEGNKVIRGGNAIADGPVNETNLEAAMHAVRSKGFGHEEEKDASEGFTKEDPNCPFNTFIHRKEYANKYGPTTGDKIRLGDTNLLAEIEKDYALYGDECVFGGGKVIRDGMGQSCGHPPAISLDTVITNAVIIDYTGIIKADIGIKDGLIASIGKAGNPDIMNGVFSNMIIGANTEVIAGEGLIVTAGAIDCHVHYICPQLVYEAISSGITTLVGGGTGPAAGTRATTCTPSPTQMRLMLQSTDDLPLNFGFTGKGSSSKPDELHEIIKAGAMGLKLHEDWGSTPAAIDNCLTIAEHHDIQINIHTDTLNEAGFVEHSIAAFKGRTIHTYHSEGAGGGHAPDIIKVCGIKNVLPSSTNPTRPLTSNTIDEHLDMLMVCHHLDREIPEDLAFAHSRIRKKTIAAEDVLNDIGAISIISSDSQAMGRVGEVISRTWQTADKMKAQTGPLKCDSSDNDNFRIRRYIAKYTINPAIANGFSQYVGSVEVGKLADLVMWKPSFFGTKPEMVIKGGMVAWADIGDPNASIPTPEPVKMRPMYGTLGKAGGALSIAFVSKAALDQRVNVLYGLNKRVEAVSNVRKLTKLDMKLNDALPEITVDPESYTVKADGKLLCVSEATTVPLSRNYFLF

Structure (SMILES)	ppm Ammonia
O=C(O)CC(O)(CC(=O)O)C(=O)O [Example 3, Citric Acid]	140 ppm
O=C([O-])CN(CCN(CC(=O)[O-])CC(=O)O)CC(=O)O.[K+].[K+] [Example 2, K2EDTA]	190 ppm
